Measurements taken from patent US20170128448A1, “COMBINATION THERAPY FOR CANCER” (Celgene Corporation, priority 2014, published 2017).

Legend:
[1] = system: human NK cell; experiment: NK cell IFN-γ production in response to immobilized Ig-G and IL-2 stimulation; format: cell-based; settings: read-out: EC50, enhancement of NK cell IFN-γ production
From the text: Without being bound by a particular theory, Compound A is believed to enhance the human NK cell killing function, antibody-dependent cellular cytotoxicity (ADCC), in rituximab coated lymphoma cell lines.

[2] = system: DoHH2 lymphoma xenograft; experiment: DoHH2 lymphoma xenograft model; format: in vivo
Experimental: (§1) In combination with rituximab, Compound A at 3 and 30 mg/kg induced complete regressions in 60% and 90% of animals, respectively.

[3] = system: WSU-DLCL2 lymphoma xenograft; experiment: WSU-DLCL2 lymphoma xenograft model; format: in vivo; settings: for complete regressions, % of animals: WSU-DLCL2
Experimental: as §1

[4] = system: follicular lymphoma cell lines (RL and DoHH2); experiment: 8-day cytotoxicity assay (cell titer glo), follicular lymphoma lines; format: cell-based; settings: Compound A 200 nM for 8 days + obinutuzumab (GA101) 0 to 10,000 ng/mL last 24 hours; FL lines
Experimental: (§2) In vitro combination efficacy studies were performed with Compound A and obinutuzumab (GA101). Two follicular (RL and DoHH2) and two diffuse large B cell lymphoma (DLBCL) (Oci-Ly10, WSU-DLCL2) cell lines were treated with either single agent Compound A (200 nM), single agent obinutuzumab (0 to 10,000 ng/mL) or in combination in 8-day cytotoxicity assays (cell titer glo). In both the single agent and combination studies, the cells were treated with Compound A for 8 days and with obinutuzumab treatment on the last 24 hours in the combination studies.

[5] = system: DLBCL cell lines (Oci-Ly10, WSU-DLCL2); experiment: 8-day cytotoxicity assay (cell titer glo), DLBCL lines; format: cell-based; settings: Compound A 200 nM for 8 days + obinutuzumab (GA101) 0 to 10,000 ng/mL last 24 hours
Experimental: as §2

[6] = First-in-human study of Compound A, Part A dose escalation; format: in vivo; settings: for dose limiting toxicities (DLT) observed: in vivo
Experimental: (§3) The first-in-human study of Compound A is being conducted in a broad tumor population including diverse solid tumors, lymphoma and MM. Part A of the study used a Compound A starting dose of 0.5 mg QD on a continuous dosing schedule. Using allometric scaling, this dose represented a dose ˜20-fold below the highest non-severely toxic dose (HNSTD) in primates based on preclinical toxicology studies. Part A dose escalation proceeded in 0.5 mg increments (0.5, 1.0, 1.5, 2.0, 2.5, 3.0, 3.5 mg) and established the nontolerated dose (NTD) at 3.5 mg QD and the MTD at 3.0 mg QD. […] In Part B, parallel expansion cohorts (14 to 20 subjects each) in 4 tumor indications (MM, NHL, HCC and gliomas) were subsequently enrolled at a dose of 3.0 mg QD. Given that subjects with CLL may be more sensitive to the side effects of immunomodulatory agents (IMiDs®) and other cereblon-binding agents, and the clinical safety, PK and pharmacodynamics data observed with Compound A to date, a lower Compound A starting dose of 0.25 mg QD was used in a CLL population.

[7] = in vivo
Experimental: as §3

[8] = system: panel of lymphoma and MM cell lines; experiment: Immunomodulatory and anti-proliferative activity against a panel of cell lines; format: cell-based
Experimental: (§4) A second consideration for the starting dose of Compound A is based on the relative in vitro potency between Compound A and lenalidomide and the relative human safety and tolerability of lenalidomide in CLL. […] Clinical exploration of lenalidomide in CLL has established 5 mg to be a tolerable starting dose.

[9] = system: human CLL cells; experiment: Primary cultures of human CLL cells; format: cell-based; settings: in 70% of samples tested
Experimental: as §4

[10] = system: TNF-α; experiment: Cytokine inhibition in LPS-stimulated hPBMC and human whole blood: TNF-α; format: cell-based
From the text: (§5) TNF-α is an inflammatory cytokine produced by macrophages and monocytes during acute inflammation. TNF-α is responsible for a diverse range of signaling events within cells. TNF-α may play a pathological role in cancer. Without being limited by theory, one of the biological effects exerted by Compound A is the reduction of synthesis of TNF-α. Compound A enhances the degradation of TNF-α mRNA.

[11] = system: IL-1β; experiment: Cytokine inhibition in LPS-stimulated hPBMC and human whole blood: IL-1β; format: cell-based
From the text: as §5

[12] = system: IL-10; experiment: Cytokine stimulation in LPS-stimulated hPBMC and human whole blood: IL-10; format: cell-based
From the text: as §5

[13] = system: T cells; experiment: T cell co-stimulation; format: cell-based; settings: under appropriate conditions
[14] = system: DLBCL cell lines; settings: lenalidomide with ibrutinib (Yang, 2012); cited from earlier work
[15] = cited from earlier work
[16] = continuous dosing, solid tumors, lymphoma and MM

Cc1nc2cccc(N)c2c(=O)n1C1CCC(=O)NC1=O (centres unmarked) [Compound A, 3-(5-amino-2-methyl-4-oxo-4H-quinazolin-3-yl)-piperidine-2,6-dione]
EC50 [1]: 1.5 nM | tumor growth inhibition, single agent ([2]; Compound A single agent at 3 and 30 mg/kg): modest dose-dependent tumor growth inhibition | tumor growth delay, combination with rituximab ([2]; in combination with rituximab): significantly and dose-dependently delayed tumor growth | complete regressions, % of animals ([3]; Compound A 3 mg/kg in combination with rituximab): 60% | complete regressions, % of animals ([3]; Compound A 30 mg/kg in combination with rituximab): 90% | effect as single agent ([3]; WSU-DLCL2 study, Compound A single agent): minimal effects | tumor growth inhibition, administered with rituximab ([3]; WSU-DLCL2 xenograft, administered with rituximab): dose-dependent tumor growth inhibition | combination effect on cytotoxicity [4]: synergistic | combination effect on cytotoxicity [5]: additive | MTD [6, 16]: 3.0 mg QD | nontolerated dose (NTD) [6, 16]: 3.5 mg QD | dose limiting toxicities (DLT) observed ([6]; human): Grade 3 fever and fatigue and Grade 3 muscle weakness | dose limiting toxicities (DLT) observed [6]: No DLTs | starting dose relative to highest non-severely toxic dose (HNSTD) in primates, fold below [7]: ~20 fold | potency relative to lenalidomide, immunomodulatory and anti-proliferative activity [8]: ~10 fold | potency relative to lenalidomide [9]: ~5 fold | inhibition of TNF-α [10]: markedly inhibits | inhibition of IL-1β [11]: potently inhibits | effect on IL-10 [12]: stimulates | T cell co-stimulation, cell proliferation [13]: increased cell proliferation in a dose dependent manner

GA101: humanized type II monoclonal antibody that binds to CD20 and triggers destruction of B-cells
combination effect on cytotoxicity [4]: synergistic | combination effect on cytotoxicity [5]: additive

Nc1cccc2c1CN(C1CCC(=O)NC1=O)C2=O (centres unmarked) [lenalidomide]
combination effect of lenalidomide and ibrutinib on killing of DLBCL cell lines [14]: synergistically kill | effect of intermittent dosing schedule in CLL ([15]; 21 of 28 day cycles, during the 7 day drug holidays (Chen, 2011)): rebound lymphocytosis | tolerable starting dose in CLL ([15]; CLL patients): 5 mg

C=CC(=O)N1CCC[C@@H](n2nc(-c3ccc(Oc4ccccc4)cc3)c3c(N)ncnc32)C1 [ibrutinib]
combination effect of lenalidomide and ibrutinib on killing of DLBCL cell lines [14]: synergistically kill
